Data set [1] relates to tube worms. The note with it: in vivo; cited from earlier work.
Data set [2] concerns algal growth. Conditions: in vivo; cited from earlier work.
The test system of data set [3] is barnacle cyprid larva. Conditions: barnacles; cited from earlier work.
For data set [4] the following is noted: stirring.
Procedure: This example investigated the solubility of SELEKTOPE® (I-Tech AB, Mölndal, Sweden) in 1,4-butandiol (Brenntag Nordic AB, Malmö, Sweden). Vials were prepared according to Table 1 and left with stirring.
Vial number 4 was prepared and left with stirring in a same way as vial numbers 1-3.

On to `Cc1cccc(C(C)c2c[nH]cn2)c1C` (racemic) [Medetomidine, (±)-4,5-[1-(2,3-dimethylphenyl)ethyl)-1H-imidazole], for which the “effect on other hard fouling, such as tube worms” value in data set [1] was “shown effect”. In addition, in data set [2], the “effect on algal growth” value was “no effect on algal growth”. Further, in data set [3], the “concentrations that impede larval settlement” value is 1 to 10 nM. For the same compound, the “dissolution in vial number 1” value in data set [4] (97 mg SELEKTOPE in 1.007 g 1,4-butandiol, after 24 hours) is given as “all SELEKTOPE® had dissolved”. The “dissolution in vial number 2” value in data set [4] (206 mg SELEKTOPE in 1.012 g 1,4-butandiol, 48 hours after preparation) is “all SELEKTOPE® material had dissolved”. Also, the “dissolution in vial number 4” value in data set [4] (247 mg SELEKTOPE in 1.009 g 1,4-butandiol, 24 hours after preparation (same at 48 hours)) is “a few non-dissolved grains remaining”. Further, the “dissolution in vial number 3” value in data set [4] (303 mg SELEKTOPE in 1.024 g 1,4-butandiol, after about 2 hours (same after 24 and 48 hours)) is reported as “still a lot of non-dissolved SELEKTOPE®”.

Source of the values: patent publication US11603475B2, “Antifouling article” (I-Tech AB, priority 2017, dated 2023).
